Source: ChEMBL document CHEMBL4043309, “Computer-Aided Discovery and Characterization of Novel Ebola Virus Inhibitors” (J Med Chem, 2018)
The source made the active and inactive calls. The rule behind the calls is not given here.

Columns and labels:
[1] = target: Procathepsin L (Homo sapiens) (UniProt P07711); conditions: at 10 µM
cells = type: cell-based, Ebolavirus; conditions: Orthoebolavirus, HeLa, 4.5 h
in vitro [2] = conditions: human, hela
in vitro [3] = conditions: human, hela; remark: listed apart in the source
Ebolavirus = assay: Antiviral activity against Ebolavirus Mayinga infected in African green monkey Vero E6 cells after 72 hrs by eGFP assay; type: functional; conditions: Orthoebolavirus, Vero C1008, 72 h
[4] = target: Cathepsin B (Homo sapiens) (UniProt P07858); assay: Inhibition of recombinant cathepsin B (unknown origin) at 10 uM using Ac-RR-AFC as substrate preincubated for 29 mins followed by substrate addition by fluorescence-based assay

Procathepsin L (Homo sapiens), sequence (P07711 114-333 limits assumed): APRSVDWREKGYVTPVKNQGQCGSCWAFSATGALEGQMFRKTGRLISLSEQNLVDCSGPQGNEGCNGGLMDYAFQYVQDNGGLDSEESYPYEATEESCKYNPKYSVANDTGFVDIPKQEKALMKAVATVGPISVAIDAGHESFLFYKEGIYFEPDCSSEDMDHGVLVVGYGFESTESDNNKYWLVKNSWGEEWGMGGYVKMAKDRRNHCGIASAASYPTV

| SMILES | IC50 (cells) [µM] | selectivity ratio (in vitro [2]) | selectivity ratio (in vitro [3]) | other results |
| --- | --- | --- | --- | --- |
| CC(C)(C)c1ccc(C(=O)CCCN2CCC(OC(c3ccccc3)c3ccccc3)CC2)cc1 |  |  |  | inhibition [1]: Active |
| COc1ccc2cc1Oc1ccc(cc1)C[C@H]1c3c(cc4c(c3Oc3cc5c(cc3OC)CCN(C)[C@@H]5C2)OCO4)CCN1C [CEPHARANTHINE] | 1.53 |  |  |  |
| CCN(CC)CCCN(c1ccccc1)C1Cc2ccccc2C1 [APRINDINE] | 7.69 |  |  |  |
| CCC1=C[C@@H]2CN(C1)Cc1c([nH]c3ccccc13)[C@@](C(=O)OC)(c1cc3c(cc1OC)N(C)[C@H]1[C@@](O)(C(=O)OC)[C@H](OC(C)=O)[C@]4(CC)C=CCN5CC[C@]31[C@@H]54)C2 [VINORELBINE] | 0.066 |  |  |  |
| CC(=O)N(C)C1(c2ccccc2)CCN(CCC[C@]2(c3ccc(Cl)c(Cl)c3)CCCN(C(=O)c3ccccc3)C2)CC1 [OSANETANT] | 9.65 | 52 | 52 |  |
| CC[C@]1(O)C[C@H]2CN(CCc3c([nH]c4ccccc34)[C@@](C(=O)OC)(c3cc4c(cc3OC)N(C=O)[C@H]3[C@@](O)(C(=O)OC)[C@H](OC(C)=O)[C@]5(CC)C=CCN6CC[C@]43[C@@H]65)C2)C1 [VINCRISTINE] | 0.141 |  |  |  |
| COc1cc2nc(N3CCCN(C)CC3)nc(NC3CCN(Cc4ccccc4)CC3)c2cc1OC | 0.966 | 45 | 45 | IC50 (Ebolavirus): 1 to 10 µM |
| CCC(=C(c1ccc(O)cc1)c1ccc(OCCN(C)C)cc1)c1ccccc1 | 1.96 | 123 | 123 |  |
| CNC1CCC(N(Cc2cccc(-c3ccncc3)c2)C(=O)c2sc3c(F)ccc(F)c3c2Cl)CC1 (stereo unspecified) | 7.67 | 65 | 65 |  |
| Nc1ncnc2c1c(-c1cccc(OCc3ccccc3)c1)cn2[C@H]1C[C@H](CN2CCCC2)C1 | 3.05 | 13 | 13 | IC50 (Ebolavirus): 1 to 10 µM |
| COCC(=O)O[C@]1(CCN(C)CCCc2nc3ccccc3[nH]2)CCc2cc(F)ccc2[C@@H]1C(C)C [MIBEFRADIL] | 4.32 |  |  |  |
| CN1[C@@H]2CC[C@H]1C[C@@H](OC1c3ccccc3CCc3ccccc31)C2 [DEPTROPINE] | 6.58 | 76 | 76 | inhibition [1]: Active |
| COc1cc2c(Oc3ccc4[nH]c(C)cc4c3F)ncnc2cc1OCCCN1CCCC1 [CEDIRANIB] | 7.67 | 65 | 65 |  |
| CC[C@]1(O)C[C@@H]2CN(CCc3c([nH]c4ccccc34)[C@@](C(=O)OC)(c3cc4c(cc3OC)N(C)[C@H]3[C@@](O)(C(N)=O)[C@H](O)[C@]5(CC)C=CCN6CC[C@]43[C@@H]65)C2)C1 [VINDESINE] | 0.272 | 1840 | 1840 |  |
| Cc1[nH]c2c(CN3CC(CO)C(CN4CCCC4)C3)cccc2c1C (stereo unspecified) | 6.09 | 82 | 82 | IC50 (Ebolavirus): 1 to 10 µM |
| CCCCc1oc2ccc(NS(C)(=O)=O)cc2c1C(=O)c1ccc(OCCCN(CCCC)CCCC)cc1 [DRONEDARONE] | 2.2 |  |  |  |
| COc1ccc2cc1Oc1ccc(cc1)C[C@H]1c3cc(c(OC)cc3CCN1C)Oc1c(OC)c(OC)cc3c1[C@H](C2)N(C)CC3 [FANCHININ] | 2.16 | 22 | 22 |  |
| CN1CCN(CCCN2c3ccccc3Sc3ccc(S(=O)(=O)N(C)C)cc32)CC1 [THIOPROPERAZINE] | 4.32 |  |  |  |
| Cc1ccc(CN2CCCN(C)C3(CCN(C)CC3)C2)cc1C | 6.83 | 73 | 73 | IC50 (Ebolavirus): 1 to 10 µM |
| CN(C)c1ccccc1CN1CCCN(Cc2ccccc2N(C)C)C1c1ccncc1 | 6.83 | 73 | 73 | inhibition [1]: Active; inhibition [4]: Active |
| CC[C@]1(O)C[C@@H]2CN(CCc3c([nH]c4ccccc34)[C@@](C(=O)OC)(c3cc4c(cc3OC)N(C)[C@H]3[C@@](O)(C(=O)OC)[C@H](OC(C)=O)[C@]5(CC)C=CCN6CC[C@]43[C@@H]65)C2)C1 [VINBLASTINE] |  |  |  | EC50 (cells): 0.048 µM |
| CC/C(=C(\c1ccc(O)cc1)c1ccc(OCCNC)cc1)c1ccccc1 [ENDOXIFEN] | 3.05 | 164 | 164 |  |
| COc1cc(Nc2c(C#N)cnc3cc(OCCCN4CCN(C)CC4)c(OC)cc23)c(Cl)cc1Cl [BOSUTINIB] | 3.85 |  |  |  |
